The values that follow come from patent publication EP4728880A1, “CORDYCEPS SINENSIS FERMENTATION COMPOSITION” (Hangzhou Zhongmeihuadong Pharmaceutical Jiangdong Co., Ltd, priority 2023, dated 2024).

Where two headings read alike, the source gives them in different places.

A short description of data set [1]: Hydroxyl radical scavenging rate (Fenton colorimetric method). The data set is classed as biochemical. From the text: IV. Detection of hydroxyl radical scavenging rate (Fenton colorimetric method)
H2O2/Fe^2+ produces a hydroxyl radical through a Fenton reaction, Fe^2+ is oxidized into Fe^3+, and red phenanthroline-Fe^2+ is oxidized into colorless phenanthroline-Fe^3+, so that the maximum absorption peak of the phenanthroline-Fe^2+ disappears at 536 nm. The absorbance change at 530-540 nm may be determined by a spectrophotometer. Thus, content change of the hydroxyl radical can be calculated, that is, the hydroxyl radical scavenging rate or scavenging capacity of the sample can be calculated.
• 1. 0.2 g of mycelia powder was weighed; 2 mL of purified water was added; the mycelia powder and the water were uniformly mixed; the mixture was placed at a room temperature for standing for 4 h; the solution was centrifuged at 10000 rpm for 10 min; and the supernatant was taken for later use. • 2. Other samples served as reference solutions.
The spectrophotometer was started for preheating for 30 min; the wavelength was adjusted to 536 nm; and the purified water was subjected to zero setting.
A blank tube, an undamaged tube, a damaged tube, a control tube and a determination tube were set according to the following table; the solutions were added in sequence; and the solutions were uniformly mixed and placed in a water bath at 37°C for 1 h.
(§1) Calculation: To-be-tested sample•OH scavenging rate (%)=[(A3-A3')-(A2-A0)]/(A1-A2)×100% • V. Detection methods of adenosine, mannitol, total amino acid content and water were conducted according to the detection method under the fermented Cordyceps sinensis. mycelia powder item in accordance with National Drug Standards. • VI. Detection method of tyrosinase inhibition rate • 1. Preparation of a solution: • (1) Preparation of a PBS: 3.4022 g of potassium dihydrogen phosphate and 5.7055 g of potassium phosphate dibasic trihydrate were respectively weighed and then dissolved with an appropriate amount of distilled water; the volume was fixed in a 1000 mL volumetric flask; the solution was shaken up to obtain the PBS having a pH value of 6.81 and a concentration of 0.05 mol·L-1, and the PBS was kept in a dark place at 4°C in a refrigerator. • (2) Preparation of an L-Dopa solution: 0.0395 g of L-Dopa was precisely weighed and dissolved with the prepared PBS; the solution was transferred into a 100 mL volumetric flask; the volume was fixed; the solution was shaken up and subjected to ultrasonic treatment to obtain the L-Dopa solution of 2 mmol·L-1. The solution was used when prepared. • (3) Preparation of a TYR ([…]) solution: 25 KU of the TYR was totally dissolved with a small amount of PBS; the solution was repeatedly washed for several times; the washing liquid was transferred into the […] volumetric flask; the volume was fixed with the PBS; the liquid was shaken up to obtain a TYR solution of 250 U·mL-1; then the mother solution was diluted to 125 U·mL-1; and the solution was preserved at -20°C in the refrigerator for later use. • 2. Preparation of samples: 250 mg/ml of an erythritol mother solution: 2.5 g of erythritol was weighed, and 10 ml of purified water was added; 250 mg/ml of a mannitol mother solution: 7.5 g of mannitol was weighed, 30 ml of purified water was added, the mixture was heated and dissolved; and the solution was diluted into the needed concentration according to each reaction system and then added into the detection system. • 3. Determination of the sample on TYR inhibitory activity

The next data set concerns tyrosinase. The data set is described as follows: Tyrosinase inhibition rate (L-Dopa substrate, absorbance at 475 nm). As to conditions: combination of both amounts, negative = activation rate. The data set is classed as biochemical. The method, then:
as §1
The reaction system was shown as Table 4.2. […] A calculation formula of the inhibition rate was as follows: when the calculated result was negative, the absolute value of the negative was an activation rate.
Inhibition rate = ((A1−A2)−(A3−A4))/(A1 −A2) × 100% [formula] • A1: absorbance of a reaction solution with TYR instead of the sample determined at 475 nm; • A2: absorbance of a reaction solution without the sample nor the TYR determined at 475 nm; • A3: absorbance of a reaction solution with both the sample and the TYR determined at 475 nm; • A4: absorbance of a reaction solution with the sample instead of the TYR determined at 475 nm.

For data set [2] the following is noted: in water, at 25°C; cited from earlier work.
For data set [3] the following is noted: cited from earlier work.
For data set [4] the following is noted: cited from earlier work. The source holds these as a separate data set.
Where [5] appears, read: Erythritol 0.75 mg (3.75 mg/ml), Mannitol 2.5 mg (12.5 mg/ml), combination of both amounts.
The mark [6] stands for this setting: Erythritol 1.5 mg (7.5 mg/ml), Mannitol 2.5 mg (12.5 mg/ml), combination of both amounts.
[7] abbreviates: Erythritol 1.75 mg (8.75 mg/ml), Mannitol 2.5 mg (12.5 mg/ml), combination of both amounts.
The mark [8] stands for this setting: Erythritol 2 mg (10 mg/ml), Mannitol 2.5 mg (12.5 mg/ml), combination of both amounts.
Setting [9] is: Erythritol 2.5 mg (12.5 mg/ml), Mannitol 2.5 mg (12.5 mg/ml), combination of both amounts.
Where [10] appears, read: Erythritol 12.5 mg (6.25 mg/ml), Adenosine 0.15 ml (0.75 mg/ml), combination of both amounts.
The mark [11] stands for this setting: Erythritol 12.5 mg (6.25 mg/ml), Adenosine 0.15 ml (2.5 mg/ml), combination of both amounts.
Setting [12] is: Erythritol 0.75 mg (3.75 mg/ml), Mannitol 1.25 mg (6.25 mg/ml).
[13] abbreviates: Erythritol 1.25 mg (6.25 mg/ml), Mannitol 1.25 mg (6.25 mg/ml).
Where [14] appears, read: Erythritol 1.75 mg (8.75 mg/ml), Mannitol 2.5 mg (12.5 mg/ml).
The mark [15] stands for this setting: EGT 0.4 ml (0.02 mg/ml), Adenosine 0.4 ml (0.02 mg/ml), combination 0.2 ml (0.02 mg/ml) + 0.2 ml (0.02 mg/ml).

`OCC(O)C(O)CO` (centres unmarked) [Erythritol, 1,2,3,4-butanetetraol]: the “OH clearance rate (%)” value in data set [1] (setting [5]) is 5.14%; in data set [1] (setting [6]) it was 2.44%; in data set [1] (setting [7]), 11.76%; in data set [1] (setting [8]), 20.15%; in data set [1] (setting [9]), 11.45%; in data set [1] (setting [10]), -8.17%. Besides, in data set [1] (setting [11]), the “OH clearance rate (%)” value is listed as -5.8%. The “Tyrosinase inhibition rate (%)” value is reported as -1.06% in the data set on tyrosinase (setting [12]), 1.71% in the data set on tyrosinase (setting [13]) and 6.39% in the data set on tyrosinase (setting [14]). Moreover, in data set [2], the solubility is reported as 37%. Further, the “absorbed in small intestine via passive diffusion” value in data set [3] (after ingestion by a human body) was 80-90%. Besides, in data set [3] (human body, share of the absorbed amount), the “absorbed erythritol oxidized into erythrose in blood” value was 5-10%. In addition, the intestinal tolerance result was “the diarrhea and/or a severe intestinal symptom is not observed” in data set [4] (children aged 4-6 years, beverages containing 15 g); “good intestinal tolerance without any adverse symptom” in data set [4] (healthy volunteers aged 18-24 years, 20-35 g in a liquid form); “symptoms such as diarrhea and nausea were observed” in data set [4] (healthy volunteers aged 18-24 years, intake of 50 g).

In the case of `Nc1ncnc2c1ncn2[C@@H]1O[C@H](CO)[C@@H](O)[C@H]1O` [Adenosine, adenosine], the figures for the “OH clearance rate (%)” value in data set [1] (setting [15]), in data set [1] (setting [10]) and in data set [1] (setting [11]) were 0.00%, 10.57% and 7.17%, respectively.

In the case of `OC[C@@H](O)[C@@H](O)[C@H](O)[C@H](O)CO` [Mannitol, D-mannitol], the “OH clearance rate (%)” value in data set [1] (setting [5]) came out at 17.91%; in data set [1] (setting [6]), 7.48%; in data set [1] (setting [7]), 7.48%; in data set [1] (setting [8]), 7.48%; in data set [1] (setting [9]) it was 7.48%. The “Tyrosinase inhibition rate (%)” value in the data set on tyrosinase (setting [12]) turned out to be 3.62%; in the data set with tyrosinase (setting [13]), 2.51%; in the data set on tyrosinase (setting [14]) it was 2.51%.

For `C[N+](C)(C)[C@@H](Cc1c[nH]c(=S)[nH]1)C(=O)[O-]` [EGT, Ergothioneine], the “OH clearance rate (%)” value is -5.70% in data set [1] (setting [15]) and 2.08% in data set [1] (EGT 0.4 ml (0.05 mg/ml), Erythritol 0.4 ml (0.05 mg/ml), combination 0.2 ml (0.05 mg/ml) + 0.2 ml (0.05 mg/ml)).
